The numbers were not newly measured in US20240350591A1, “COMPOSITION AND METHODS OF TREATMENT USING […]-ENHANCED SUPPLEMENTATION” (Xygenyx Inc., priority 2023, published 2024), which cites them from elsewhere.

For data set [1] the following is noted: patients who did not respond to traditional antidepressant medications.
The conditions of data set [2]: transdermal route.
Data set [3] relates to wide dynamic range neurons in the ventroposterolateral nucleus of the thalamus. The conditions noted are these: in vivo.
In data set [4] the test system is skin. The settings on record: topical, concentrations 0.5-5%.
The test system of data set [5] is skin. The settings on record: topical formulations, within four weeks of treatment.
The conditions of data set [6]: compared to α-tocopherol = 1.0.
Data set [7] deals with F2-isoprostane. The settings on record: large doses of 1600-3200 IU/day.
Experiment in data set [8]: not given
The source holds these as a separate data set.

For data set [9] the following is noted: dietary intake in equal portions.
The subject of data set [10] is markers of inflammation. The conditions noted are these: individuals with metabolic syndrome.
The conditions of data set [11]: in vivo.

Non-standard residues stand in square brackets, D forms with d. Residues, ends and D or L forms follow the SMILES beside them. ξ: configuration not given here. Cit = NC(=O)NCCC[C@H](N)C(=O)O; Ile(3ξ) = CCC(C)[C@H](N)C(=O)O

Turning to `CN1c2c([nH]c(N)nc2=O)NCC1CNc1ccc(C(=O)N[C@@H](CCC(=O)O)C(=O)O)cc1` (some centres unmarked) [5-MTHF, 5-methyltetrahydrofolate], in data set [1], the symptoms of depression result was “improved”.

Consider `CC(C)[C@@H]1CC[C@@H](C)C[C@H]1O` [Menthol], for which the “factor of increase of drug uptake” value in data set [2] is listed as at least 10.

On to `CCCCCc1cc(O)c2c(c1)OC(C)(C)C1CCC(C)=CC21` (centres unmarked) [THC, Δ-9-tetrahydrocannabinol], for which the “power in mediating pain relative to morphine” value in data set [3] is given as “ten times”.

Consider `C=CCCCCCCCCC(=O)N[C@@H](Cc1ccccc1)C(=O)O` [UP, Undecylenoyl phenylalanine], for which, in [4], the “time of treatment to skin lightening effects” value was at least 7 days.

As for `CC12CCC(CC1)C(C)(C)O2` [eucalyptol, 1,8-epoxy-p-menthane], in [2], the “factor of increase of drug uptake” value is given as “more than 10”.

`CCC(C)[C@H](NC(=O)[C@H](CC(=O)O)NC(=O)[C@@H](N)CCCCN)C(=O)N[C@@H](CCCNC(N)=O)C(N)=O` (some centres unmarked) [tripeptide-10 citrulline, Tripeptide-10 citrulline] (H-KD[Ile(3ξ)][Cit]-NH2): in data set [5], the improvement of suppleness is given as at most 54%.

With `Cc1c(C)c2c(c(C)c1O)CC[C@@](C)(CCC[C@H](C)CCC[C@H](C)CCCC(C)C)O2` [α-tocopherol], for the setting “dietary supplementation, doses up to 400 IU/day”, the “reduction of risk of coronary disease” value is listed as “up to 34%”. The “reduction of risk of developing neurodegenerative diseases (Alzheimer's Syndrome or dementia)” value (dietary supplementation, doses up to 400 IU/day, controlled trials) is at most 24%. For the same molecule, for the setting “in combination with 10-20 mg β-carotene and 400-500 mg vitamin C, doses around 400-500 IU”, the “reduction in the development of age-related cataracts” value was 23%. The relative biological activity in [6] is on record as 1.0. Moreover, the “blood plasma concentration of F2-isoprostane” value in data set [7] is recorded as “significantly lower”.

In the case of `C=C1CC/C=C(\C)CC[C@@H]2[C@@H]1CC2(C)C` [β-caryophyllene], in data set [8] (arthritic subjects), the “increases of protein carbonyl groups and myeloperoxidase activity in the liver and plasma” value is listed as “eliminated”. Besides, in data set [8] (rheumatoid arthritis), the “number of circulating and articular leukocytes” value is reported as “reduced”; the “swelling of joints and lymph nodes” value is listed as “reduced”.

Consider `Cc1cc(O)c(C)c2c1O[C@](C)(CCC[C@H](C)CCC[C@H](C)CCCC(C)C)CC2` [β-tocopherol], for which the relative biological activity in data set [6] was 0.5.

As to `Cc1c(O)cc2c(c1C)O[C@](C)(CCC[C@H](C)CCC[C@H](C)CCCC(C)C)CC2` [γ-tocopherol], the relative biological activity in data set [6] is given as 0.1. Further, in data set [9], the “concentration in vivo relative to α-tocopherol” value is “roughly 10%”.

For `Cc1cc(O)cc2c1O[C@](C)(CCC[C@H](C)CCC[C@H](C)CCCC(C)C)CC2` [δ-tocopherol], the “markers of inflammation in the blood” value in data set [10] is “reduced”. Besides, the relative biological activity in data set [6] is reported as 0.03.

“HGH: hormone comprising a peptide chain that is synthesized in the pituitary gland”: the biological half-life in data set [11] was 10-20 minutes.
